# Test results reported in patent publication US20250368666A1, “INDAZOLE COMPOUNDS” (TYRA BIOSCIENCES, INC., priority 2022, published 2025).
# Counter-ions that a name gives are not always drawn. Like-named read-outs stand apart in the source and are kept apart here.
# Key:
# Test in all cases: Kinase binding assay (kinase-tagged T7 phage, affinity beads, qPCR), Kd
# [1] = target: T1, FGFR3 (V555M) (Homo sapiens, UniProt P22607, V555M); settings: V555M mutant; read-out: FGFR3 (V555M) (Kd nM)
# T1 construct: made in house; host or cells: E. coli (BL21-derived), T7 phage
# Protocol: (§1) Kinase-tagged T7 phage strains were prepared in an E. coli host derived from the BL21 strain. E. coli were grown to log-phase and infected with T7 phage and incubated with shaking at 32° C. until lysis. The lysates were centrifuged and filtered to remove cell debris. Streptavidin-coated magnetic beads were treated with biotinylated small molecule ligands for 30 minutes at room temperature to generate affinity resins for kinase assays. The liganded beads were blocked with excess biotin and washed with blocking buffer SeaBlock (Pierce), 1% BSA, 0.05% Tween 20, 1 mM DTT to remove unbound ligand and to reduce non-specific binding.
# (§2) Test compounds were prepared as 111× stocks in 100% DMSO. Kds were determined using an 11-point 3-fold compound dilution series with three DMSO control points. […] The compounds were then diluted directly into the assays such that the final concentration of DMSO was 0.9%. All reactions performed in polypropylene 384-well plate. Each was a final volume of 0.02 ml. […] The kinase concentration in the eluates was measured by qPCR.
# (§3) Binding constants were calculated with a standard dose-response curve using the Hill equation: […]
# (§4) The Hill Slope was set to −1. Curves were fitted using a non-linear least square fit with the Levenberg-Marquardt algorithm.
# [2] = target: T2, FGFR4 (Homo sapiens, UniProt P22455); settings: read-out: FGFR4 (Kd nM)
# T2 construct: made in house; host or cells: E. coli (BL21-derived), T7 phage
# Protocol: as §1, §2, §3, §4
# [3] = target: T3, FGFR2 (Homo sapiens, UniProt P21802); settings: read-out: FGFR2 (Kd nM)
# T3 construct: made in house; host or cells: E. coli (BL21-derived), T7 phage
# Protocol: as §1, §2, §3, §4
# [4] = target: T4, FGFR1 (Homo sapiens, UniProt P11362); settings: read-out: FGFR1 (Kd nM)
# T4 construct: made in house; host or cells: E. coli (BL21-derived), T7 phage
# Protocol: as §1, §2, §3, §4
# [5] = target: T5, FGFR3 (Homo sapiens, UniProt P22607); settings: read-out: FGFR3 (Kd nM)
# T5 construct: made in house; host or cells: E. coli (BL21-derived), T7 phage
# Protocol: as §1, §2, §3, §4
# [6] = kinase binding assay, 11-point 3-fold dilution series
# T1 sequence (P22607 23-806 V555M): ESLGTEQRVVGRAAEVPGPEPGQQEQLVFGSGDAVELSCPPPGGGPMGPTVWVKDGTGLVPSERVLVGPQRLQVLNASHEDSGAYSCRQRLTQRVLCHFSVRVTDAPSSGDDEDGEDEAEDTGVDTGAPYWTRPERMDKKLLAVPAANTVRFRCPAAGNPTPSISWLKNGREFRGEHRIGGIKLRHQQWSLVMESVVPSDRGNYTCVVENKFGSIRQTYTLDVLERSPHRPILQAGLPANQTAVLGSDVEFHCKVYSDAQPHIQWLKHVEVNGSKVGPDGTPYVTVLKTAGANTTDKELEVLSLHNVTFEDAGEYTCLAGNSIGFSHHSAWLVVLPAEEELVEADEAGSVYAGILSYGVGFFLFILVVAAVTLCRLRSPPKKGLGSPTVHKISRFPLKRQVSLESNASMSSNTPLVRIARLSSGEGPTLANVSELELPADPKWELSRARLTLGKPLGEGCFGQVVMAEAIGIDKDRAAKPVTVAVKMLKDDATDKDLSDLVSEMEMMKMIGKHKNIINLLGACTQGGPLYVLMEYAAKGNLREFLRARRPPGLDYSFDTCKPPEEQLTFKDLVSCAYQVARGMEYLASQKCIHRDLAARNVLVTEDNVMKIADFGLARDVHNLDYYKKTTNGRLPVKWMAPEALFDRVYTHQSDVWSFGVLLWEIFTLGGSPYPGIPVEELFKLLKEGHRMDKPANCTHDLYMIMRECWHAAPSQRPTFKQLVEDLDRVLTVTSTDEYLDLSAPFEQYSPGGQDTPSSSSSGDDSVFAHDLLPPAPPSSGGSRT
# T2 sequence (P22455 22-802): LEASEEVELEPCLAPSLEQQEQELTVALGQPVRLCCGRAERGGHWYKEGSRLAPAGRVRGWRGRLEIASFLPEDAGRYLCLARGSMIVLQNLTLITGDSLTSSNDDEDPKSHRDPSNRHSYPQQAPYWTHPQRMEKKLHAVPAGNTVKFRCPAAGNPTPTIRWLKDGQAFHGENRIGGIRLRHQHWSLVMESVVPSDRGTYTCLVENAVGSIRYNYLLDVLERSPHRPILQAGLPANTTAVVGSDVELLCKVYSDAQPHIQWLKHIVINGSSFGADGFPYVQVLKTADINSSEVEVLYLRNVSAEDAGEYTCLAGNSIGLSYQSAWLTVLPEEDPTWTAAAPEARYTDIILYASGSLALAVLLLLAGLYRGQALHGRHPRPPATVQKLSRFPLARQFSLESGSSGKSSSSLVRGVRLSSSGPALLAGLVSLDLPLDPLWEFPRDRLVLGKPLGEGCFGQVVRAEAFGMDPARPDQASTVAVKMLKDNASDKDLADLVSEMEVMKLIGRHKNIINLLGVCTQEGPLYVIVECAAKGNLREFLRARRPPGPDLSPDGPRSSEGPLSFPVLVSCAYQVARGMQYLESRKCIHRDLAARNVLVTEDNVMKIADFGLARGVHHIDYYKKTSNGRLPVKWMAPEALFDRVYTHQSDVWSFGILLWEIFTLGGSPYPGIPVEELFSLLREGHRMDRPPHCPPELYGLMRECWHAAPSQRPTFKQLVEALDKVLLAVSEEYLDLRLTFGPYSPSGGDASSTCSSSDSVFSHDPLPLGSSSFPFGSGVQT
# T3 sequence (P21802 22-821): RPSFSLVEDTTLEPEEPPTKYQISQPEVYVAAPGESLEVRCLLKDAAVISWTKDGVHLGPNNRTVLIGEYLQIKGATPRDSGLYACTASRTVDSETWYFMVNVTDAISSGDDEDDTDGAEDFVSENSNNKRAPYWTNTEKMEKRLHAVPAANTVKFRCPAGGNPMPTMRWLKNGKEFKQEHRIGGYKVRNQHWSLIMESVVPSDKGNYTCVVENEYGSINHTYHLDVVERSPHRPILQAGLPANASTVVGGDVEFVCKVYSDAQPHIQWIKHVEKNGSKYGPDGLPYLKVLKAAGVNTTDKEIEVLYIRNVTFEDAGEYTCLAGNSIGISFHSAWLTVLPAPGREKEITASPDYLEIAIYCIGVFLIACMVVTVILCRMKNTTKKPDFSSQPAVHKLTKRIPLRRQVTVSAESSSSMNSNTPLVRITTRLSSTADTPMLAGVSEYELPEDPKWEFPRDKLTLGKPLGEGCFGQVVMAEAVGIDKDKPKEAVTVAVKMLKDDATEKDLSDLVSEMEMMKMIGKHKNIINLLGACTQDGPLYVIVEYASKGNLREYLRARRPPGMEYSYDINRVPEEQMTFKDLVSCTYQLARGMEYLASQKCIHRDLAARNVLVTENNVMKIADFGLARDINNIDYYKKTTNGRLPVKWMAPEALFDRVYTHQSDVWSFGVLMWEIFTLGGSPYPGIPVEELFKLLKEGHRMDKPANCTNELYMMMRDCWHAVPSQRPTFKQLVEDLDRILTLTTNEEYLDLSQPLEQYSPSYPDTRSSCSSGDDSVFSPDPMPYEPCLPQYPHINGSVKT
# T4 sequence (P11362 22-822): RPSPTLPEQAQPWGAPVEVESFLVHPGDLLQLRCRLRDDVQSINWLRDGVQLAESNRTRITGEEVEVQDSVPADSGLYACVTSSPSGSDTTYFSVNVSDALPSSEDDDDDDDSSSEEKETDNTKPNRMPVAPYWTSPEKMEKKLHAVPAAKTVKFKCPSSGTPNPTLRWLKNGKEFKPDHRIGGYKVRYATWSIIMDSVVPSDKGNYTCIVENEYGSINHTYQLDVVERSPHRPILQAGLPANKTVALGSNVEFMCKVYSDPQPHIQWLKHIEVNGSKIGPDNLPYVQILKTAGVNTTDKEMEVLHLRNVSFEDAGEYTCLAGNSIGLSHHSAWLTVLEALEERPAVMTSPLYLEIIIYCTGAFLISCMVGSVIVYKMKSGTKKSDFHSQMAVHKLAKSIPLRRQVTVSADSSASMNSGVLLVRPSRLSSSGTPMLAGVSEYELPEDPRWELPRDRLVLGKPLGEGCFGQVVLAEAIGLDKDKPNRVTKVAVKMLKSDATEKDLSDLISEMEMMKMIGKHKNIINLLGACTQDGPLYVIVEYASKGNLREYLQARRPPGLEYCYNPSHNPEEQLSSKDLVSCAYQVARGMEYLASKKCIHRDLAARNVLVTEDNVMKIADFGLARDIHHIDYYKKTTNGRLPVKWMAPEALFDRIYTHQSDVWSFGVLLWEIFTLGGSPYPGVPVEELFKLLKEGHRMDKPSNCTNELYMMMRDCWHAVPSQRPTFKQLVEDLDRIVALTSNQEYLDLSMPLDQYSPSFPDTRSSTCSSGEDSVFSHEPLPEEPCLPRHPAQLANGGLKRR
# T5 sequence (P22607 23-806): as the sequence (P22607 23-806 V555M) above, with M533V counted along it
Kd [1] [nM],Kd [2] [nM],Kd [3] [nM],Kd [4] [nM],Kd [5] [nM],"Kd [4, 6] [nM]","Kd [5, 6] [nM]",SMILES
300 to 1000,50 to 300,> 1000,> 1000,> 1000,–,–,"CC(C)NC1(C)CN(c2ncc(-c3n[nH]c4ccc(O[C@H](C)c5c(Cl)cncc5Cl)c(F)c34)cc2C#N)C1 [Example 319, (R)-5-(5-(1-(3,5-dichloropyridin-4-yl)ethoxy)-4-fluoro-1H-indazol-3-yl)-2-(3-(isopropylamino)-3-methylazetidin-1-yl)nicotinonitrile]"
1 to 50,1 to 50,1 to 50,1 to 50,1 to 50,–,–,"COc1cc2[nH]nc(-c3ccc(N4CC(C)(CP(C)(C)=O)C4)nc3)c2cc1O[C@H](C)c1c(Cl)cncc1Cl [Example 180, (R)-((1-(5-(5-(1-(3,5-dichloro-pyridin-4-yl)ethoxy)-6-meth-oxy-1H-inda-zol-3-yl)pyridin-2-yl)-3-methylazetidin-3-yl)methyl)dimethyl-phosphine oxide]"
1 to 50,1 to 50,1 to 50,1 to 50,1 to 50,–,–,"C[C@@H](Oc1ccc2[nH]nc(-c3cnc(N4CC(C)(NCC5CC5)C4)nc3)c2c1)c1c(Cl)cncc1Cl [Example 235, (R)-N-(cyclo-propylmethyl)-1-(5-(5-(1-(3,5-dichloropyridin-4-yl)ethoxy)-1H-indazol-3-yl)pyrimidin-2-yl)-3-methylazetidin-3-amine]"
1 to 50,1 to 50,1 to 50,1 to 50,1 to 50,–,–,"C[C@@H](Oc1cc2c(-c3ccc(N4CC(C)(CN5CCCC5)C4)nc3)n[nH]c2cc1F)c1c(Cl)cncc1Cl [Example 188, (R)-5-(1-(3,5-dichloropyridin-4-yl)ethoxy)-6-fluoro-3-(6-(3-methyl-3-(pyrrolidin-1-ylmethyl)azetidin-1-yl)pyridin-3-yl)-1H-indazole]"
1 to 50,50 to 300,50 to 300,300 to 1000,50 to 300,–,–,"C[C@@H](Oc1ccc2[nH]nc(-c3cnc(N4CC(C)(CP(C)(C)=O)C4)c(F)c3)c2c1F)c1c(Cl)cncc1Cl [Example 172, (R)-((1-(5-(5-(1-(3,5-dichloro-pyridin-4-yl)ethoxy)-4-fluoro-1H-inda-zol-3-yl)-3-fluoropyridin-2-yl)-3-methylazetidin-3-yl)methyl)dimethyl-phosphine oxide]"
1 to 50,1 to 50,1 to 50,1 to 50,1 to 50,–,–,"C[C@@H](Oc1ccc2[nH]nc(-c3cnc(N4CC(C)(CP(C)(C)=O)C4)c(F)c3)c2c1)c1c(Cl)cncc1Cl [Example 121, (R)-((1-(5-(5-(1-(3,5-dichloropyridin-4-yl)ethoxy)-1H-indazol-3-yl)-3-fluoropyridin-2-yl)-3-methylazetidin-3-yl)methyl)dimethylphos-phine oxide]"
50 to 300,300 to 1000,> 1000,> 1000,300 to 1000,–,–,"C[C@@H](Oc1ccc2[nH]nc(-c3cnc(N4CC(C)(CS(C)(=O)=O)C4)c(F)c3)c2c1F)c1c(Cl)cncc1Cl [Example 196, (R)-5-(1-(3,5-dichloropyridin-4-yl)ethoxy)-4-fluoro-3-(5-fluoro-6-(3-methyl-3-((methyl-sulfonyl)meth-yl)azetidin-1-yl)pyridin-3-yl)-1H-indazole]"
1 to 50,1 to 50,1 to 50,1 to 50,1 to 50,–,–,"C[C@@H](Oc1ccc2[nH]nc(-c3ccc(N4CC(C)(N5CCP(C)(=O)CC5)C4)nc3)c2c1)c1c(Cl)cncc1Cl [Example 226, (R)-1-(1-(5-(5-(1-(3,5-dichloropyridin-4-yl)ethoxy)-1H-indazol-3-yl)pyridin-2-yl)-3-methylazetidin-3-yl)-4-methyl-1,4-azaphosphinane 4-oxide]"
300 to 1000,50 to 300,> 1000,> 1000,> 1000,–,–,"C[C@@H](Oc1ccc2[nH]nc(-c3cnc(N4CC(C)(N5CCCC5)C4)c(C#N)c3)c2c1F)c1c(Cl)cncc1Cl [Example 322, (R)-5-(5-(1-(3,5-dichloropyridin-4-yl)ethoxy)-4-fluoro-1H-indazol-3-yl)-2-(3-methyl-3-(pyrrolidin-1-yl)azetidin-1-yl)nicotinonitrile]"
–,–,–,–,–,1 to 50,1 to 50,"C[C@@H](Oc1ccc2[nH]nc(-c3ccc(N4CC[C@@](C)(N)C4)nn3)c2c1)c1c(Cl)cncc1Cl [Example 406, (R)-1-(6-(5-((R)-1-(3,5-dichloropyridin-4-yl)ethoxy)-1H-indazol-3-yl)pyridazin-3-yl)-3-methylpyrrolidin-3-amine]"
–,–,–,1 to 50,1 to 50,–,–,"CNC(=O)C1(N)CN(c2ncc(-c3n[nH]c4ccc(O[C@H](C)c5c(Cl)cncc5Cl)cc34)cc2F)C1 [Example 296, (R)-3-amino-1-(5-(5-(1-(3,5-dichloropyridin-4-yl)ethoxy)-1H-indazol-3-yl)-3-fluoropyridin-2-yl)-N-methylazetidine-3-carboxamide]"
–,–,–,–,–,1 to 50,1 to 50,"CC[C@]1(N)CCN(c2ccc(-c3n[nH]c4ccc(O[C@H](C)c5c(Cl)cncc5Cl)cc34)nn2)C1 [Example 403, (S)-1-(6-(5-((R)-1-(3,5-dichloropyridin-4-yl)ethoxy)-1H-indazol-3-yl)pyridazin-3-yl)-3-ethylpyrrolidin-3-amine]"
–,–,–,1 to 50,1 to 50,–,–,"C[C@@H](Oc1ccc2[nH]nc(-c3cnc(N4CC(C)(NCC(=O)N(C)C)C4)c(F)c3)c2c1)c1c(Cl)cncc1Cl [Example 311, (R)-2-((1-(5-(5-(1-(3,5-dichloropyridin-4-yl)ethoxy)-1H-indazol-3-yl)-3-fluoropyridin-2-yl)-3-methylazetidin-3-yl)amino)-N,N-dimethylacetamide]"
–,–,–,50 to 300,1 to 50,–,–,"CC(C)CNC1(CC#N)CN(c2ncc(-c3n[nH]c4ccc(O[C@H](C)c5c(Cl)cncc5Cl)cc34)cc2F)C1 [Example 253, (R)-2-(1-(5-(5-(1-(3,5-Dichloropyridin-4-yl)ethoxy)-1H-indazol-3-yl)-3-fluoropyridin-2-yl)-3-(iso-butylamino)azeti-din-3-yl)acetonitrile dihydrochloride]"
–,–,–,1 to 50,1 to 50,–,–,"CCC(C)C1(N)CN(c2ncc(-c3n[nH]c4ccc(O[C@H](C)c5c(Cl)cncc5Cl)cc34)cc2F)C1 (stereo partly drawn) [Example 280, 1-[5-[5-[(1R)-1-(3,5-dichloro-4-pyridyl)ethoxy]-1H-indazol-3-yl]-3-fluoro-2-pyridyl]-3-sec-butyl-azetidin-3-amine]"
–,–,–,1 to 50,1 to 50,–,–,"C[C@@H](Oc1ccc2[nH]nc(-c3ccc(N4CC(N)(CC(C)(C)O)C4)nc3)c2c1)c1c(Cl)cncc1Cl [Example 278, (R)-1-(3-amino-1-(5-(5-(1-(3,5-dichloropyridin-4-yl)ethoxy)-1H-indazol-3-yl)pyridin-2-yl)azetidin-3-yl)-2-methylpropan-2-ol]"
–,–,–,–,–,1 to 50,1 to 50,"COc1cc2[nH]nc(-c3cnc(N4CC[C@](C)(N)C4)c(F)c3)c2cc1O[C@H](C)c1c(Cl)cncc1Cl [Example 389, (S)-1-(5-(5-((R)-1-(3,5-dichloropyridin-4-yl)ethoxy)-6-methoxy-1H-indazol-3-yl)-3-fluoropyridin-2-yl)-3-methylpyrrolidin-3-amine]"
–,–,–,–,–,1 to 50,1 to 50,"C[C@@H](Oc1ccc2[nH]nc(-c3ccc(N4CC[C@@](N)(c5ccnn5C)C4)nn3)c2c1)c1c(Cl)cncc1Cl [Example 417, (S)-1-(6-(5-((R)-1-(3,5-dichloropyridin-4-yl)ethoxy)-1H-indazol-3-yl)pyridazin-3-yl)-3-(1-methyl-1H-pyrazol-5-yl)pyrrolidin-3-amine]"
–,–,–,1 to 50,1 to 50,–,–,C[C@@H](Oc1ccc2[nH]nc(-c3ccc(N4CC(C)(N)C4)nn3)c2c1)c1c(Cl)cncc1Cl [Example 286]
–,–,–,50 to 300,1 to 50,–,–,"Cc1ncc(Cl)c([C@@H](C)Oc2ccc3[nH]nc(-c4cnc(N5CC(CC#N)(NCC(C)C)C5)c(F)c4)c3c2)c1Cl [Example 254, (R)-2-(1-(5-(5-(1-(3,5-Dichloro-2-methylpyridin-4-yl)ethoxy)-1H-indazol-3-yl)-3-fluoropyridin-2-yl)-3-(iso-butylamino)azeti-din-3-yl)acetonitrile]"
–,–,–,–,–,1 to 50,1 to 50,"C[C@@H](Oc1ccc2[nH]nc(-c3ccc(N4CC[C@](N)(Cc5ccnn5C)C4)nn3)c2c1)c1c(Cl)cncc1Cl [Example 424, (S)-1-(6-(5-((R)-1-(3,5-dichloropyridin-4-yl)ethoxy)-1H-indazol-3-yl)pyridazin-3-yl)-3-((1-methyl-1H-pyrazol-5-yl)methyl)pyrrolidin-3-amine]"
